Results reported in BigSolDB 2.1.

Settings: in tetrachloromethane

C[C@@H]1CC[C@@]2(OC1)O[C@H]1C[C@H]3[C@@H]4CC=C5C[C@@H](O)CC[C@]5(C)[C@H]4CC[C@]3(C)[C@H]1[C@@H]2C
Settings | solubility (mole fraction)
291.95 K | 0.00286
297.45 K | 0.00334
299.85 K | 0.00381
302.75 K | 0.00429
306.95 K | 0.00487
308.95 K | 0.00536
311.35 K | 0.00578
313.65 K | 0.0063
316.15 K | 0.00676
317.95 K | 0.00718
318.95 K | 0.00763
320.55 K | 0.00804
322.35 K | 0.00857
323.65 K | 0.00905
325.15 K | 0.0095
326.35 K | 0.0099
327.85 K | 0.0105
328.95 K | 0.0109
